Data taken from patent US5958770A, “Glycoalkaloids” (priority 1990, dated 1999).
Read-outs that look alike come from different tables or passages of the source.

Tests used:
[1] = test system: human cells, ovarian cancer cells, melanoma cells, cells infected with viruses, normal fibroblasts, normal bone marrow cells, leukemic cells and normal …; experiment: Inhibition of the action of the mixture of solasodine glycosides by free sugars and sugars bound to bovine serum albumin; format: cell-based; settings: free sugar and bound to bovine serum albumin
in vitro [2] = settings: human, pwm stimulated lymphocytes
Method: (§5) This was cultured for 48 hours and pulsed with tritiated thymidine for a further 24 hours. In the inhibition studies, the cell concentration was 8×10^5 /ml.
(§6) All cells were harvested by vacuum filtration by washing in 250 μl of each of phosphate buffered saline, 5% trichloroacetic acid, 1.0M NaCl and 95% ethanol and subjected to β-scintillatian counting. Similarly, peripheral human blood lymphocytes were isolated and cultured 2×10^5 lymphocytes in CO2 1640TCM 10% HIFCS. Lymphocytes were stimulated with 20 μg/ml PHA, Con A or PWM, and cultured for 48 hrs followed by a 24 hr pulse. […] Cell concentrations were 8×10^4 /well total volume 250 μl. The dpm of the experimental replicates were expressed as a percentage of the mean value of the controls, and the mean value of the experimental replicates calculated.

ovarian cancer cells [3] = experiment: Inhibition of tritiated thymidine uptake, ovarian cancer cells
Method: (§1) The inhibition of cell replication by steroid alkaloids is determined by the inhibition of the incorporation of ^3 H thymidine into DNA. Using this technique, it should be possible to monitor any preferential inhibition of uptake of ^3 H thymidine by cancer cells.
(§2) Cells were maintained as monolayers in RPM1-1640 tissue culture media (Grant Island Biological Co) buffered with N-2-hydroxy-ethylpiperazine-N-2-ethanesulphonic acid pH 7.5 and supplemented with 10% heat inactivated fetal calf serum (FCS): (i) a human ovarian cancer cell line (C180-135), (ii) HeLa cells, (iii) human fibroblasts, and (iv) as a cell suspension of lymphoblastoid cells (EBV transformed lymphocytes). Monolayers were trypsinized to form a cell suspension. […] Cell concentration was adjusted to 2×10^5 cells/ml, and 2×10^4 cells were added in replicates of 10 to the wells (1×10^5 /ml well) of HA microtitre plates (Millipore Corp., USA). The cells were preincubated at 37.5° C. for 7 hours prior to the addition of 50 μl of the cytotoxic drug followed by the addition of 50 μl 5 uCi/ml of ^3 H thymidine, in the same tissue culture media 21 hours later. Incubation was continued for a total of 24 hours, which includes the pre-incubation time.
(§3) Appropriate DMSO cytotoxicity studies were also conducted. Solasodine glycosides were supplied as a mixture (BEC), and as separate components, solamargine, solasonine, a mixture of di- and mono-glycosides and the aglycone solasodine. All cytotoxic drugs were further diluted with HIFCS/TCM before testing. 5×10^4 ovarian cancer cells (200 μl/chamber of a chamber of microscope slide (Lab Tek Miles Scientific) were used. Controls received 50 μl HIFCS/TCM and experimental chambers 50 μl of solasodine glycosides (BEC) 1.5-3.8 μM/L after 7 hrs preincubation, and incubated for a further 3 hrs. Similarly, the cells were treated with the aglycone solasodine 19.4-96.8 μM/L. The cells were fixed and examined by the Papanicolaou method.

[4] = test system: ovarian cancer cells, HeLa cells, lymphoblastoid cells, fibroblasts; experiment: Cytotoxicity / inhibition of tritiated thymidine uptake, cell types taken together; settings: for inhibition of tritiated thymidine uptake / cytotoxicity (words): 11.3 μM/L, various cell types
Method: as §1, §2, §3

HeLa cells [5] = experiment: cells
Method: as §1, §2, §3

human fibroblasts = experiment: cells
Method: as §1, §2, §3

[6] = test system: lymphoblastoid cells (EBV transformed lymphocytes); experiment: cells
Method: as §1, §2, §3

in vitro [7] = settings: human, pha stimulated lymphocytes
Method: as §5, §6

[8] = test system: unstimulated and stimulated lymphocytes; settings: for cytotoxicity (words): unstimulated and stimulated lymphocytes
Method: as §5, §6

in vitro [9] = settings: human, con a stimulated lymphocytes
Method: as §5, §6

in vitro [10] = settings: human, unstimulated lymphocytes
Method: as §5, §6

Sarcoma 180 = experiment: Survival of mice with Sarcoma 180, with and without rhamnose; format: in vivo
Method: Herston White mice with a body weight of approximately 30 g and aged 8-10 weeks served as recipients. Twelve mice were randomly chosen for each experimental group.
Sarcoma 180 tumour cells (5×10^5) were inoculated intraperitoneally into mice. This caused a mortality of 100% with a median survival time of 20 days in the control groups. A standard mixture of glycoalkaloids (BEC) was dissolved in dimethylsulfoxide at a concentration of 0.5 g BEC/100 ml dimethylsulfoxide. Similar solutions were made up but also contained 0.3125, 0.625 and 0.9375 g of rhamnose. These solutions were administered intraperitoneally in concentrations of 8 mg/kg animal weight for BEC (FIG. 9) without (-.tangle-solidup.-), and with 5 mg (-.quadrature.-), 10 mg (-.cndot.-) and 15 mg (-Δ-) rhamnose/kg animal weight. The first dose was given 0.5 hours after administration of the Sarcoma 180 tumour cells. The remaining three doses were given at daily intervals. Dimethylsulfoxide and rhamnose had no effect on Sarcoma 180 activity in the absence of BEC (-.smallcircle.-).

unstimulated lymphocytes [11] = experiment: DMG cytotoxicity with carbohydrates, unstimulated lymphocytes; format: cell-based, human
Method: (§4) A mixture of solasodine glycosides (BEC), of which the active compound is solamargine and from which the aglycone solasodine is derived was prepared for use in cytotoxicity assays as determined by the uptake of tritiated thymidine. Inhibition studies were carried out with lactose, lactosyl-albumin, galactose or rhamnose (Sigma Chemical Co., USA). All experimental replicates were related to their own controls. Total volume of replicates was 250 μl (carbohydrates added in 50 μl tissue culture media+10% fetal calf serum), and the cell concentrations were 8×10^4 /ml.

[12] = test system: Con A stimulated lymphocytes; experiment: DMG cytotoxicity with carbohydrates, Con A stimulated lymphocytes; format: cell-based, human
Method: as §4

fibroblasts = experiment: Solamargine cytotoxicity in presence and absence of carbohydrates, fibroblasts; format: cell-based, human; settings: fibroblasts
Method: as §4

HeLa cells [13] = experiment: Solamargine cytotoxicity in presence and absence of carbohydrates, HeLa cells; format: cell-based, human; settings: HeLa cells
Method: as §4

lymphoblastoid cells = experiment: Solamargine cytotoxicity in presence and absence of carbohydrates, lymphoblastoid cells; format: cell-based; settings: lymphoblastoid cells
Method: as §4

ovarian cancer cells [14] = experiment: Solamargine cytotoxicity in presence and absence of carbohydrates, ovarian cancer cells; format: cell-based, human; settings: ovarian cancer cells
Method: as §4

unstimulated lymphocytes [15] = experiment: Inhibition of tritiated thymidine uptake, unstimulated lymphocytes; settings: much higher concentrations; unstimulated lymphocytes (FIG. 8e)
Method: as §5, §6

ovarian cancer cells [16] = experiment: Morphological examination of ovarian cancer cells (Papanicolaou); format: cell-based, human; settings: 19.4-96.8 μM/L; FIG. 2A
Method: Appropriate DMSO cytotoxicity studies were also conducted.
A human ovarian cancer cell line (C180-135) was grown as mono layers and trypsinized to form a cell suspension. The cells were adjusted to a concentration of 1×10^5 /ml (viability ≥95%) and 200 μl placed in each of the eight chambers of microscope chamber slides (Lab Tek, Miles Scientific). After 21 hours preincubation at 37.5° C., 50 μl of supplemented tissue culture media were added to the control chambers. To the other chambers were added 50 μl of solasodine glycosides (BEC) to give final concentrations of 3, 4.8, 6.7, 7.7, 9.6, 11.1 and 15.3 μM/L. Similarly, to a separate chamber slide was added the aglycone solasodine (19.4-96.8 μM/L). The slides were incubated at 37.5° C. for a further 3 hours, and the cells fixed in 95% V/V alcohol and stained by the Papanicolaou method. Two other chamber slides were prepared in a similar manner, but the solasodine glycosides and the aglycone were added at a final concentration of 0.77, 1.5, 2.3, 3.1 and 3.8 μM/L after 7 hours preincubation, and they incubated for a further 17 hours.

[17] = 100 mg solasodine/kg; cited from earlier work

CC(=O)N[C@H]1C(O)O[C@H](CO)[C@@H](O)[C@@H]1O (stereo partly shown) [NAc glucosamine]
inhibitory effect on the action of the mixture of solasodine glycosides [1]: inhibitory effects

CC(=O)N[C@@H]1[C@@H](O)[C@H](O)[C@@H](CO)O[C@@H]1O [NAc glucose]
inhibitory effect on the action of the mixture of solasodine glycosides [1]: inhibitory effects

CC(=O)N[C@@H]1C(O)O[C@H](CO)[C@@H](O)[C@@H]1O (stereo partly shown) [NAc mannosamine]
inhibitory effect on the action of the mixture of solasodine glycosides [1]: inhibitory effects

CC(=O)NC1C(O)OC(CO)C(O)C1O (stereo not shown) [NAc mannose]
inhibitory effect on the action of the mixture of solasodine glycosides [1]: inhibitory effects

C[C@@H]1CC[C@@]2(NC1)O[C@H]1C[C@H]3[C@@H]4CC=C5C[C@@H](O[C@@H]6O[C@H](CO)[C@H](O)[C@H](O[C@@H]7O[C@H](CO)[C@@H](O)[C@H](O)[C@H]7O)[C@H]6O[C@@H]6O[C@@H](C)[C@H](O)[C@@H](O)[C@H]6O)CC[C@]5(C)[C@H]4CC[C@]3(C)[C@H]1[C@@H]2C [Solasonine, solasonine]
viability at 11.3 µM (in vitro [2]): 110 ± 3.8%
viability at 11.3 µM (ovarian cancer cells [3]; Homo sapiens, read-out: Percentage Cell Survival): 93 ± 8%
inhibition of tritiated thymidine uptake / cytotoxicity (words) [4]: ineffective
inhibition of tritiated thymidine uptake / cytotoxicity (words) ([4]; listed as solasonine): not cytotoxic
viability at 11.3 µM (HeLa cells [5]; Homo sapiens, HeLa, read-out: Percentage Cell Survival): 105 ± 9.5%
viability at 11.3 µM (human fibroblasts; Homo sapiens, Fibroblast, read-out: Percentage Cell Survival): 96 ± 8.3%
viability at 11.3 µM ([6]; Homo sapiens, Lymphoblastoid cell, read-out: Percentage Cell Survival): 117 ± 8%
viability at 11.3 µM (in vitro [7]): 103 ± 5.7%
cytotoxicity (words) [8]: ineffective
cytotoxicity (words) ([8]; listed as solasonine): absence of any effect
viability at 11.3 µM (in vitro [9]): 97 ± 7%
viability at 11.3 µM (in vitro [10]): 97 ± 11.8%

O=C[C@H](O)[C@@H](O)[C@H](O)[C@H](O)CO [glucose]
inhibitory effect on the action of the mixture of solasodine glycosides [1]: inhibitory effects
effect on S180 activity in the absence of BEC (Sarcoma 180): no effects
inhibition of the action of DMG (unstimulated lymphocytes [11]): do not inhibit DMG
inhibition of the action of DMG [12]: inhibit the action of DMG

OC[C@H]1O[C@@H](O[C@H]2[C@H](O)[C@@H](O)C(O)O[C@@H]2CO)[C@H](O)[C@@H](O)[C@H]1O (stereo partly shown) [lactose, reference compound]
inhibition of solamargine cytotoxicity (fibroblasts): completely inhibited
inhibition of solamargine cytotoxicity (HeLa cells [13]): not inhibited
inhibitory effect on the action of the mixture of solasodine glycosides [1]: inhibitory effects
inhibition of solamargine cytotoxicity (lymphoblastoid cells): partial inhibition
inhibition of solamargine cytotoxicity (ovarian cancer cells [14]): Partial inhibition

O=C[C@@H](O)[C@@H](O)[C@H](O)[C@H](O)CO [mannose]
inhibitory effect on the action of the mixture of solasodine glycosides [1]: inhibitory effects

C[C@H]1CC[C@@H]2[C@@H](C)[C@H]3[C@H](C[C@H]4[C@@H]5CC=C6C[C@@H](O[C@@H]7O[C@H](CO)[C@H](O)[C@H](O[C@@H]8O[C@H](CO)[C@@H](O)[C@H](O)[C@H]8O)[C@H]7O[C@@H]7O[C@@H](C)[C@H](O)[C@@H](O)[C@H]7O)CC[C@]6(C)[C@H]5CC[C@]34C)N2C1 [solanine]
lysosomotropic/mitochondrial inhibition [4]: lack of lysosomotropic/mitochondrial inhibition

C[C@@H]1CC[C@@]2(NC1)O[C@H]1C[C@H]3[C@@H]4CC=C5C[C@@H](O)CC[C@]5(C)[C@H]4CC[C@]3(C)[C@H]1[C@@H]2C [solasodine]
cytotoxic effect of aglycone (ovarian cancer cells [3]; higher concentrations (FIG. 7)): increase in cytotoxicity
lysosomotropic/mitochondrial inhibition [4]: lack of lysosomotropic/mitochondrial inhibition
cytotoxic effect of aglycone ([4]; equivalent concentrations of solamargine (FIG. 6)): does not exert a cytotoxic effect
cytotoxic effect of aglycone ([8]; equivalent concentrations of DMG): does not exert a cytotoxic effect
effectiveness against S180 (Sarcoma 180; aglycone, 100 mg/kg): not effective
cytotoxic effect of aglycone (unstimulated lymphocytes [15]): substantial effect on unstimulated lymphocytes
morphological effect on ovarian cancer cells (ovarian cancer cells [16]): did not have any observable effect
deaths in mice [17]: does not produce any deaths

CC[C@]1(O)C[C@@H]2CN(CCc3c([nH]c4ccccc34)[C@@](C(=O)OC)(c3cc4c(cc3OC)N(C)[C@H]3[C@@](O)(C(=O)OC)[C@H](OC(C)=O)[C@]5(CC)C=CCN6CC[C@]43[C@@H]65)C2)C1 [vinblastine, reference compound]
CC50 (in vitro [2]): 10.8 µM
IC50 (ovarian cancer cells [3]; Homo sapiens, read-out: LD50 (dose to inhibit 50% tritiated thymidine uptake)): 9.5 µM
cytotoxicity to normal cells relative to cancer cells ([4]; normal versus cancer cells): equally or more cytotoxic to normal cells relative to cancer cells
TR50 (thymidine ratio relative to ovarian cancer cells) (HeLa cells [5]; HeLa / OvCa): 0.28
IC50 (HeLa cells [5]; Homo sapiens, HeLa, read-out: LD50 (dose to inhibit 50% tritiated thymidine uptake)): 2.7 µM
TR50 (thymidine ratio relative to ovarian cancer cells) (human fibroblasts; FB / OvCa): 0.2
IC50 (human fibroblasts; Homo sapiens, Fibroblast, read-out: LD50 (dose to inhibit 50% tritiated thymidine uptake)): 1.9 µM
TR50 for fibroblasts/lymphoblastoid cells (human fibroblasts; fibroblasts/lymphoblastoid cells): 0.73
TR50 (thymidine ratio relative to ovarian cancer cells) ([6]; LCL / OvCa): 0.27
IC50 ([6]; human gammaherpesvirus 4, LCL, read-out: LD50 (dose to inhibit 50% tritiated thymidine uptake)): 2.6 µM
CC50 (in vitro [7]): 19.2 µM
CC50 (in vitro [9]): 7.8 µM
CC50 (in vitro [10]): 11 µM

galactose [reference compound]
inhibition of solamargine cytotoxicity (fibroblasts): completely inhibited
inhibition of solamargine cytotoxicity (HeLa cells [13]): not inhibited
inhibitory effect on the action of the mixture of solasodine glycosides [1]: inhibitory effects
inhibition of solamargine cytotoxicity (lymphoblastoid cells): partial inhibition
inhibition of solamargine cytotoxicity (ovarian cancer cells [14]): partial inhibition

rhamnose
inhibition of solamargine cytotoxicity (fibroblasts): inhibition by rhamnose is also demonstrable
effect on S180 activity in the absence of BEC (Sarcoma 180): no effects
inhibition of the efficacy of BEC (Sarcoma 180; mice with S180): inhibits the efficacy of BEC
inhibition of the action of DMG (unstimulated lymphocytes [11]): do not inhibit DMG
inhibition of the action of DMG [12]: inhibit the action of DMG
